IC50 data for 19 molecules are collected here from patent publication US8017612B2, “Piperazine compound and use thereof as a HCV polymerase inhibitor” (priority 2006, dated 2011).

Experiment [1] addresses T1, HCV polymerase (NS5B) type 1b (Hepatitis C virus genotype 1b, UniProt P26663).
T1 construct: a region encoding NS5B (J Virol 1991 March, 65(3), 1105-13, 544 amino acids after deletion of 47 amino acids on the C-terminal); 6xHis (C); made in house; host or cells: Escherichia coli
Briefly: Assay of enzyme (HCV polymerase) inhibitory activity, type 1b enzyme. In kind it is biochemical, HCV BK strain (type 1b). Particulars: HCV polymerase inhibitory activity IC50, 1b, type 1b enzyme. A digest of the protocol: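 Rxn: NS5B 1b (BK, ΔC47, His6) 0.5 μg/ml; substrate RNA 5 μg/ml; ATP/GTP/CTP 50 μM, UTP 2 μM + [5,6-3H]UTP; 20 mM Tris pH 7.5, 5 mM MgCl2, 50 mM NaCl, 1 mM EDTA/DTT. 25 °C, 60 min. Stop with TCA/pyrophosphate, filter, scintillation count; IC50 vs. untreated.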

Experiment [2] addresses T2, HCV polymerase (NS5B) type 1a (Hepatitis C virus genotype 1a, UniProt P26664).
T2 construct: made in house; host or cells: Escherichia coli (by the 'similar method' of the 1b enzyme)
Briefly: Assay of enzyme (HCV polymerase) inhibitory activity, type 1a enzyme. Particulars: HCV polymerase inhibitory activity IC50, 1a, type 1a enzyme. It is filed as biochemical, HCV type 1a (cloned from the blood of patients). A digest of the protocol: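 NS5B Δ47 C-term His6 (type 1a, 1.5 μg/ml); substrate RNA 5 μg/ml; ATP/GTP/CTP 50 μM, UTP 2 μM + [5,6-3H]UTP; Tris pH 7.5, MgCl2 5 mM; 25° C, 60 min. TCA/pyrophosphate stop, GF/B filter, scintillation. IC50 vs no-compound control.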

Structures are written as SMILES.

One may read the IC50 as the point on the concentration scale where inhibition reaches its midpoint. Read a low IC50 as greater potency in that assay. Turning to `O=C(NCc1ccc(OC(F)F)cc1)[C@H]1CN(c2nn3c(C(F)(F)F)cc(=O)nc3s2)CCN1S(=O)(=O)c1ccc(OC(F)(F)F)cc1` [Example 1066, (R)-4-(7-oxo-5-trifluoromethyl-7H-[1,3,4]thiadiazolo[3,2-a]pyrimidin-2-yl)-1-(4-trifluoromethoxy-benzenesulfonyl)-piperazine-2-carboxylic acid 4-difluoromethoxy-benzylamide], the IC50 in experiment [1] and in experiment [2] was < 100 nM throughout.
On to `O=C(NCc1ccc(OC(F)(F)F)cc1)[C@H]1CN(c2nn3c(C(F)(F)F)cc(=O)nc3s2)CCN1S(=O)(=O)c1ccc(C(F)(F)F)cc1` [Example 1067, (R)-4-(7-oxo-5-trifluoromethyl-7H-[1,3,4]thiadiazolo[3,2-a]pyrimidin-2-yl)-1-(4-trifluoromethyl-benzenesulfonyl)-piperazine-2-carboxylic acid 4-trifluoromethoxy-benzylamide], for which the IC50 in experiment [1] and in experiment [2] was < 100 nM each time.
`O=C(NCc1ccc(OC(F)F)cc1)[C@H]1CN(c2nn3c(C(F)(F)F)cc(=O)nc3s2)CCN1S(=O)(=O)c1ccc(C(F)(F)F)cc1` [Example 1068, (R)-4-(7-oxo-5-trifluoromethyl-7H-[1,3,4]thiadiazolo[3,2-a]pyrimidin-2-yl)-1-(4-trifluoromethyl-benzenesulfonyl)-piperazine-2-carboxylic acid 4-difluoromethoxy-benzylamide]: the IC50 in experiment [1] and in experiment [2] was < 100 nM throughout.
Consider `O=C(NCc1ccc(OC(F)(F)F)cc1)[C@H]1CN(c2nc3nc(C4CCC4)ncc3s2)CCN1S(=O)(=O)c1ccc(OC(F)(F)F)cc1` [Example 1069, (R)-4-(5-cyclobutyl-thiazolo[4,5-d]pyrimidin-2-yl)-1-(4-trifluoromethoxy-benzenesulfonyl)-piperazine-2-carboxylic acid 4-trifluoromethoxy-benzylamide], for which the IC50 in experiment [1] and in experiment [2] was < 100 nM in each case.
With `COCCc1ncc2sc(N3CCN(S(=O)(=O)c4ccc(OC(F)(F)F)cc4)[C@@H](C(=O)NCc4ccc(OC(F)(F)F)cc4)C3)nc2n1` [Example 1070, (R)-4-[5-(2-methoxy-ethyl)-thiazolo[4,5-d]pyrimidin-2-yl]-1-(4-trifluoromethoxy-benzenesulfonyl)-piperazine-2-carboxylic acid 4-trifluoromethoxy-benzylamide], the half-maximal inhibitory concentration (IC50) in experiment [1] and in experiment [2] was < 100 nM throughout.
As to `COCCn1ncc2sc(N3CCN(S(=O)(=O)c4ccc(OC(F)(F)F)cc4)[C@@H](C(=O)NCc4ccc(OC(F)(F)F)cc4)C3)nc2c1=O` [Example 1071, (R)-4-[5-(2-methoxy-ethyl)-4-oxo-4,5-dihydro-thiazolo[4,5-d]pyridazin-2-yl]-1-(4-trifluoromethoxy-benzenesulfonyl)-piperazine-2-carboxylic acid 4-trifluoromethoxy-benzylamide], the IC50 in experiment [1] and in experiment [2] was < 100 nM in each case.
For `O=C(NCc1ccc(OC(F)(F)F)cc1)[C@H]1CN(c2nc3nc(C4CCC4)ncc3s2)CCN1S(=O)(=O)c1ccc(C(F)(F)F)cc1` [Example 1072, (R)-4-(5-cyclobutyl-thiazolo[4,5-d]pyrimidin-2-yl)-1-(4-trifluoromethyl-benzenesulfonyl)-piperazine-2-carboxylic acid 4-trifluoromethoxy-benzylamide], the IC50 in experiment [1] and in experiment [2] was < 100 nM in each case.
Regarding `O=C(NCc1ccc(OC(F)F)c(F)c1)[C@H]1CN(c2nc3nc(C4CC4)ncc3s2)CCN1S(=O)(=O)c1ccc(OC(F)(F)F)cc1` [Example 1073, (R)-4-(5-cyclopropyl-thiazolo[4,5-d]pyrimidin-2-yl)-1-(4-trifluoromethoxy-benzenesulfonyl)-piperazine-2-carboxylic acid 4-difluoromethoxy-3-fluoro-benzylamide], the IC50 in experiment [1] and in experiment [2] was < 100 nM each time.
With `O=C(NCc1ccc(OC(F)F)c(F)c1)[C@H]1CN(c2nc3nc(C4CC4)ncc3s2)CCN1S(=O)(=O)c1ccc(C(F)(F)F)cc1` [Example 1074, (R)-4-(5-cyclopropyl-thiazolo[4,5-d]pyrimidin-2-yl)-1-(4-trifluoromethyl-benzenesulfonyl)-piperazine-2-carboxylic acid 4-difluoromethoxy-3-fluoro-benzylamide], the IC50 in experiment [1] and in experiment [2] was < 100 nM each time.
For the molecule `CC(C)(O)c1ncc2sc(N3CCN(S(=O)(=O)c4ccc(C(F)(F)F)cc4)[C@@H](C(=O)NCc4ccc(OC(F)(F)F)cc4)C3)nc2n1` [Example 1075, (R)-4-[5-(1-hydroxy-1-methyl-ethyl)-thiazolo[4,5-d]pyrimidin-2-yl]-1-(4-trifluoromethyl-benzenesulfonyl)-piperazine-2-carboxylic acid 4-trifluoromethoxy-benzylamide], the IC50 in experiment [1] and in experiment [2] was < 100 nM throughout.
As for `COCC1(c2ncc3sc(N4CCN(S(=O)(=O)c5ccc(OC(F)(F)F)cc5)[C@@H](C(=O)NCc5ccc(OC(F)(F)F)cc5)C4)nc3n2)CC1` [Example 1076, (R)-4-[5-(1-methoxymethyl-cyclopropyl)-thiazolo[4,5-d]pyrimidin-2-yl]-1-(4-trifluoromethoxy-benzenesulfonyl)-piperazine-2-carboxylic acid 4-trifluoromethoxy-benzylamide], the IC50 in experiment [1] and in experiment [2] was < 100 nM each time.
With `O=C(NCc1ccc(OC(F)(F)F)cc1)[C@H]1CN(c2nc3nc(C4(CO)CC4)ncc3s2)CCN1S(=O)(=O)c1ccc(OC(F)(F)F)cc1` [Example 1077, (R)-4-[5-(1-hydroxymethyl-cyclopropyl)-thiazolo[4,5-d]pyrimidin-2-yl]-1-(4-trifluoromethoxy-benzenesulfonyl)-piperazine-2-carboxylic acid 4-trifluoromethoxy-benzylamide], the IC50 in experiment [1] and in experiment [2] was < 100 nM each time.
Regarding `O=C(NCc1ccc(OC(F)(F)F)cc1)[C@H]1CN(c2nc3c(=O)n(CCO)ncc3s2)CCN1S(=O)(=O)c1ccc(OC(F)(F)F)cc1` [Example 1078, (R)-4-[5-(2-hydroxy-ethyl)-4-oxo-4,5-dihydro-thiazolo[4,5-d]pyridazin-2-yl]-1-(4-trifluoromethoxy-benzenesulfonyl)-piperazine-2-carboxylic acid 4-trifluoromethoxy-benzylamide], the IC50 in experiment [1] and in experiment [2] was < 100 nM throughout.
With `COC1(c2ncc3sc(N4CCN(S(=O)(=O)c5ccc(OC(F)(F)F)cc5)[C@@H](C(=O)NCc5ccc(OC(F)(F)F)cc5)C4)nc3n2)CC1` [Example 1079, (R)-4-[5-(1-methoxy-cyclopropyl)-thiazolo[4,5-d]pyrimidin-2-yl]-1-(4-trifluoromethoxy-benzenesulfonyl)-piperazine-2-carboxylic acid 4-trifluoromethoxy-benzylamide], the IC50 in experiment [1] and in experiment [2] was < 100 nM throughout.
Regarding `O=C(NCc1ccc(OC(F)(F)F)cc1)[C@H]1CN(c2nc3nc(C4(O)CC4)ncc3s2)CCN1S(=O)(=O)c1ccc(OC(F)(F)F)cc1` [Example 1080, (R)-4-[5-(1-hydroxy-cyclopropyl)-thiazolo[4,5-d]pyrimidin-2-yl]-1-(4-trifluoromethoxy-benzenesulfonyl)-piperazine-2-carboxylic acid 4-trifluoromethoxy-benzylamide], the IC50 in experiment [1] and in experiment [2] was < 100 nM throughout.
With `CCCc1ccc(CNC(=O)[C@H]2CN(c3nc4cc(C(=O)OC(C)(C)C)ncc4s3)CCN2S(=O)(=O)c2ccc(OC(F)(F)F)cc2)cc1` [Example 1081, 2-[(R)-3-(4-propyl-benzylcarbamoyl)-4-(4-trifluoromethoxy-benzenesulfonyl)-piperazin-1-yl]-thiazolo[5,4-c]pyridine-6-carboxylic acid tert-butyl ester], the IC50 in experiment [1] and in experiment [2] was < 100 nM each time.
For `CCCc1ccc(CNC(=O)[C@H]2CN(c3nc4cc(C(=O)O)ncc4s3)CCN2S(=O)(=O)c2ccc(OC(F)(F)F)cc2)cc1` [Example 1082, 2-[(R)-3-(4-propyl-benzylcarbamoyl)-4-(4-trifluoromethoxy-benzenesulfonyl)-piperazin-1-yl]-thiazolo[5,4-c]pyridine-6-carboxylic acid], the IC50 in experiment [1] and in experiment [2] was < 100 nM throughout.
Regarding `CCCc1ccc(CNC(=O)[C@H]2CN(c3nc4c(C(=O)OCC)cncc4s3)CCN2S(=O)(=O)c2ccc(OC(F)(F)F)cc2)cc1` [Example 1083, 2-[(R)-3-(4-propyl-benzylcarbamoyl)-4-(4-trifluoromethoxy-benzenesulfonyl)-piperazin-1-yl]-thiazolo[5,4-c]pyridine-7-carboxylic acid ethyl ester], the IC50 in experiment [1] and in experiment [2] was < 100 nM in each case.
With `CCCc1ccc(CNC(=O)[C@H]2CN(c3nc4c(C(=O)O)cncc4s3)CCN2S(=O)(=O)c2ccc(OC(F)(F)F)cc2)cc1` [Example 1084, 2-[(R)-3-(4-propyl-benzylcarbamoyl)-4-(4-trifluoromethoxy-benzenesulfonyl)-piperazin-1-yl]-thiazolo[5,4-c]pyridine-7-carboxylic acid], the IC50 in experiment [1] and in experiment [2] was < 100 nM in each case.
